Laboratory results reported in patent US20250270199A1, “THIAZOLE DERIVATIVES AND METHODS OF USING THE SAME” (Arkansas State University - Jonesboro, priority 2022, published 2025).
Values after ≈ are worked out from the molar mass of the structure shown.

What was measured:
[1] = tested on: S. aureus ATCC 25923 (Sa 23); experiment: MIC, broth microdilution, Sa 23; type: cell-based; conditions: Staphylococcus aureus, ATCC25923, Table 1, HT series; replicates from different days separated by comma; read-out: Minimum inhibitory concentration (MIC) Sa 23
Procedure: (§1) The broth microdilution method was utilized to determine MIC values of novel thiazole derivatives against different clinically important Gram-positive bacteria according to the guidelines outlined by the Clinical and Laboratory Standards Institute (CLSI) as reported in our recent papers.^1-5 The starting concentration of compounds for MIC determination was 64 μg/mL serially diluted down the wells and the MIC values were recorded in duplicates in three independent experiments on different days.

[2] = tested on: S. aureus ATCC 33591 (Sa 91); experiment: MIC, broth microdilution, Sa 91; type: cell-based; conditions: Staphylococcus aureus, ATCC33591; Table 1, HT series; read-out: Minimum inhibitory concentration (MIC) Sa 91
Procedure: as §1

[3] = tested on: Sa UAMS-1 MRSA ATCC 49230 (Sa UAMS); experiment: MIC, broth microdilution, Sa UAMS; type: cell-based, S. aureus; conditions: Staphylococcus aureus; Table 1, HT series; read-out: Minimum inhibitory concentration (MIC) Sa UAMS
Procedure: as §1

[4] = tested on: S. aureus ATCC BAA-2312 (Sa 12); experiment: MIC, broth microdilution, Sa 12; type: cell-based; conditions: Staphylococcus aureus, ATCCBAA2312; Table 1, HT series; read-out: Minimum inhibitory concentration (MIC) Sa 12
Procedure: as §1

[5] = tested on: B. subtilis ATCC 6633 (Bs); experiment: MIC, broth microdilution, Bs; type: cell-based; conditions: Bacillus subtilis, ATCC6633; Table 1, HT series; read-out: Minimum inhibitory concentration (MIC) Bs
Procedure: as §1

[6] = tested on: S. aureus subsp. aureus Rosenbach BAA-1717 (Sa USA 300); experiment: MIC, broth microdilution, Sa USA 300; type: cell-based; conditions: Staphylococcus aureus; Table 1, HT series; read-out: Minimum inhibitory concentration (MIC) SA USA 300
Procedure: as §1

[7] = tested on: E. faecium ATCC 700221 (Efm 21); experiment: MIC, broth microdilution, Efm 21; type: cell-based; conditions: Enterococcus faecium, ATCC700221, Table 1, HT series; read-out: Minimum inhibitory concentration (MIC) Efm 21
Procedure: as §1

[8] = tested on: E. faecalis ATCC 29212 (Efs 12); experiment: MIC, broth microdilution, Efs 12; type: cell-based; conditions: Enterococcus faecalis, ATCC29212, Table 1, HT series; replicates from different days separated by comma; read-out: Minimum inhibitory concentration (MIC) Efs 12
Procedure: as §1

[9] = tested on: S. aureus subsp. aureus Rosenbach ATCC 25904 (SA Newman); experiment: MIC, broth microdilution, SA Newman; type: cell-based; conditions: Staphylococcus aureus; Table 1, HT series; read-out: Minimum inhibitory concentration (MIC) Sa Newman
Procedure: as §1

[10] = tested on: S. aureus ATCC 700699 (Sa 99); experiment: MIC, broth microdilution, Sa 99; type: cell-based; conditions: Staphylococcus aureus, ATCC700699, Table 1, HT series; replicates from different days separated by comma; read-out: Minimum inhibitory concentration (MIC) Sa 99
Procedure: as §1

[11] = tested on: S. epidermidis ATCC 700296 (Se); experiment: MIC, broth microdilution, Se; type: cell-based; conditions: Staphylococcus epidermidis, ATCC700296; Table 1, HT series; read-out: Minimum inhibitory concentration (MIC) Se
Procedure: as §1

[12] = tested on: S. aureus ATCC 33592 (Sa 92); experiment: MIC, broth microdilution, Sa 92; type: cell-based; conditions: Staphylococcus aureus, ATCC33592; Table 1, HT series; read-out: Minimum inhibitory concentration (MIC) Sa 92
Procedure: as §1

[13] = tested on: E. faecalis ATCC 51299 (Efs 99); experiment: MIC, broth microdilution, Efs 99; type: cell-based; conditions: Enterococcus faecalis, ATCC51299; Table 1, HT series; read-out: Minimum inhibitory concentration (MIC) Efs 99
Procedure: as §1

Compound | MIC [1] [µg/mL] | MIC [2] [µg/mL] | MIC [3] [µg/mL] | MIC [4] [µg/mL] | MIC [5] [µg/mL] | MIC [6] [µg/mL] | MIC [7] [µg/mL] | MIC [8] [µg/mL] | MIC [9] [µg/mL] | MIC [10] [µg/mL] | MIC [11] [µg/mL] | MIC [12] [µg/mL] | MIC [13] [µg/mL]
Oc1ccc(-c2nc(-c3ccc(F)c(Cl)c3)cs2)cc1O [Compound 21, 4-(4-(3-chloro-4-fluorophenyl)thiazol-2-yl)benzene-1,2-diol] | 8 (≈ 24.9 µM) | 4 (≈ 12.4 µM) | 4 (≈ 12.4 µM) | 8 (≈ 24.9 µM) | 16 (≈ 49.7 µM) | 4 (≈ 12.4 µM) | 16 (≈ 49.7 µM) | 16 (≈ 49.7 µM) | 4 (≈ 12.4 µM) | 8 (≈ 24.9 µM) | 8 (≈ 24.9 µM) | 8 (≈ 24.9 µM) | 16 (≈ 49.7 µM)
Oc1ccc(-c2nc(-c3ccc(Cl)c(Cl)c3)cs2)cc1O [Compound 31, 4-(4-(3,4-dichlorophenyl)thiazol-2-yl)benzene-1,2-diol] | 4 (≈ 11.8 µM) | 4 (≈ 11.8 µM) | 4 (≈ 11.8 µM) | 4 (≈ 11.8 µM) | 16 (≈ 47.3 µM) | 4 (≈ 11.8 µM) | 16 (≈ 47.3 µM) | 16 (≈ 47.3 µM) | 4 (≈ 11.8 µM) | 4 (≈ 11.8 µM) | 4 (≈ 11.8 µM) | 4 (≈ 11.8 µM) | 16 (≈ 47.3 µM)
Oc1ccc(-c2nc(-c3ccc(Cl)cc3Cl)cs2)cc1 [Compound 34, 4-(4-(2,4-dichlorophenyl)thiazol-2-yl)phenol] | 4 (≈ 12.4 µM) | 4 (≈ 12.4 µM) | 4 (≈ 12.4 µM) | 4 (≈ 12.4 µM) | 4 (≈ 12.4 µM) | 4 (≈ 12.4 µM) | 8 (≈ 24.8 µM) | 8 (≈ 24.8 µM) | 4 (≈ 12.4 µM) | 4 (≈ 12.4 µM) | 4 (≈ 12.4 µM) | 4 (≈ 12.4 µM) | 8 (≈ 24.8 µM)
Oc1ccc(-c2nc(-c3cc(C(F)(F)F)cc(C(F)(F)F)c3)cs2)cc1 [Compound 36, 4-(4-(3,5-bis(trifluoromethyl)phenyl)thiazol-2-yl)phenol] | 2 (≈ 5.14 µM) | 2 (≈ 5.14 µM) | 2 (≈ 5.14 µM) | 2 (≈ 5.14 µM) | 2 (≈ 5.14 µM) | 2 (≈ 5.14 µM) | 2 (≈ 5.14 µM) | 2 (≈ 5.14 µM) | 2 (≈ 5.14 µM) | 2 (≈ 5.14 µM) | 2 (≈ 5.14 µM) | 2 (≈ 5.14 µM) | 2 (≈ 5.14 µM)
Oc1ccc(-c2nc(-c3cccc(Cl)c3)cs2)cc1 [Compound 38, 4-(4-(3-chlorophenyl)thiazol-2-yl)phenol] | 4 (≈ 13.9 µM) | 4 (≈ 13.9 µM) | 4 (≈ 13.9 µM) | 4 (≈ 13.9 µM) | 4 (≈ 13.9 µM) | 4 (≈ 13.9 µM) | 8 (≈ 27.8 µM) | 8 (≈ 27.8 µM) | 4 (≈ 13.9 µM) | 4 (≈ 13.9 µM) | 4 (≈ 13.9 µM) | 4 (≈ 13.9 µM) | 8 (≈ 27.8 µM)
Oc1ccc(-c2nc(-c3ccc(C(F)(F)F)cc3)cs2)cc1 [Compound 39, 4-(4-(4(trifluoromethyl)phenyl)thiazol-2-yl)phenol] | 2 (≈ 6.22 µM) | 4 (≈ 12.4 µM) | 4 (≈ 12.4 µM) | 2 (≈ 6.22 µM) | 4 (≈ 12.4 µM) | 4 (≈ 12.4 µM) | 32 (≈ 99.6 µM) | > 32 | 4 (≈ 12.4 µM) | 4 (≈ 12.4 µM) | 2 (≈ 6.22 µM) | 4 (≈ 12.4 µM) | > 32
Oc1ccc(-c2nc(-c3ccc(Cl)c(Cl)c3)cs2)cc1 [Compound 41, 4-(4-(3,4-dichlorophenyl)thiazol-2-yl)phenol] | 1 (≈ 3.1 µM) | 1 (≈ 3.1 µM) | 2 (≈ 6.21 µM) | 1 (≈ 3.1 µM) | 4 (≈ 12.4 µM) | 1 (≈ 3.1 µM) | 2 (≈ 6.21 µM) | 2 (≈ 6.21 µM) | 2 (≈ 6.21 µM) | 1 (≈ 3.1 µM) | 1 (≈ 3.1 µM) | 1 (≈ 3.1 µM) | 2 (≈ 6.21 µM)
